Experimental data as given in US10632130B2, “Dehydroandrosterol and methods of using the same” (A[…], LLC, priority 2016, dated 2020).
Like-named read-outs stand apart in the source and are kept apart here.

Columns and labels:
[1] = system: human, male volunteers
Method: Two human, male volunteers were selected to pre-trial the DHA material by single daily oral administration. Both were of mature age, not naive to various exogenously supplied androgens, and in good general health. Food and exercise routine was not modified from normal during the testing period, so as to avoid introduction of confounding variables.
Doses were ramped 50 mg weekly, beginning at 50 mg and concluding at 200 mg.
One of the test subjects (Subject #2) took a two week washout after this initial testing regiment and resumed testing at 100 mg, ramping the dose weekly as prior but using 100 mg increments, such that at four weeks of testing the subject was using 400 mg.
After another two week washout period, Subject #2 elected to resume testing of DHA with another related compound, androsterone, at various doses. Over several more months, this DHA/androsterone ratio was altered over a range and maintained at various ratios for not less than five days at a time before modification.

[2] = system: goats
Method: Caprine studies were also performed in two test animals. The test animals selected were monozygous male twins, castrated and placed in separate pens not later than six weeks after birth.
At approximately three months of age, one of these two goats was selected to receive daily DHA in a single, bolus, oral dose. The other goat was not given DHA, and served as the control. All parameters were equalized (pen size, ambient temperature, once daily exercise for 15 minutes on tread mill, 30 minute “play” time with other goats, twice daily ad-lib feeding of identical source feed, etc.)
Dosing was initiated in the test goat at 50 mg. After two weeks, the dose was increased to 100 mg, then after another two weeks increased to 200 mg, then maintained at that dose for an additional four weeks.
At the end of the eight week testing period, the two test animals were weighed to establish gains made from their original base-line weight at the beginning of the study.

[3] = system: human, male volunteers; remark: listed apart in the source
Text: Two human, male volunteers were selected to trial the encapsulated DHA material by daily oral administration. They were allowed to select their own serving schedules and serving sizes (within reason of extrapolated values), provided they be consistent and document the compliance of their regimens. Both were of mature age, not naive to various exogenously supplied androgens, and in good general health. Food and exercise routine was not modified from normal during the testing period, so as to avoid introduction of confounding variables.
In particular, Trial Participant #1 was a person who took five capsules a day (100 mg/day DHA) of the composition for sixteen weeks. […] Trial Participant #2 was a person who took four capsules a day (80 mg/day DHA) of the composition for six weeks.

[4] = testosterone as comparative standard; estimated; cited from earlier work
[5] = Trial Participant #2, 80 mg/day DHA, six weeks

C[C@]12CC[C@H]3[C@@H](CC=C4C[C@H](O)CC[C@@]43C)[C@@H]1CC[C@@H]2O [DHA, 5-Androsten-3a,17b-diol]
androgenic synergism with androsterone ([1]; Subject #2, extended testing, co-administered androsterone over a wide dose range): punctuated androgenic synergism
dose dependence of effects ([1]; both test subjects): proportional to dose in a fairly linear fashion
parameters associated with enhanced androgen status (muscle hardness/fullness, strength) ([1]; both test subjects): distinct improvements
side-effects characteristic of exogenous hormones ([1]; both test subjects, acne only noted at the higher doses tested): mild acne being the only undesirable effect
subjective improvements, as defined by weight, strength, and/or muscle hardness gain ([1]; both test subjects, one month, oral doses ramped 50 mg weekly from 50 mg to 200 mg): subjective improvements
male behavior in castrate male ([2]; test goat in play pen with superior goats): Alpha-male behavior was indeed noted to be established
appetite and food intake ([2]; test goat versus control): greater appetite and food intake
weight gain relative to control goat ([2]; test goat, eight weeks): approximately double
general weight gain ([2]; test goat, eight weeks, from base-line 46 pounds, control 33%): 59%
weight at end of testing ([2]; test goat, eight weeks, oral 50 mg, then 100 mg, then 200 mg daily, start weight 46 pounds, control 61 pounds): 73 pounds
weight gained ([3]; Trial Participant #1, 100 mg/day DHA, sixteen weeks): fifteen
bench press at the end ([3]; Trial Participant #1, 100 mg/day DHA, sixteen weeks, 270 pounds at the beginning): 340
single repetition leg squats at the end ([3]; Trial Participant #1, 100 mg/day DHA, sixteen weeks, 430 pounds at the beginning): 545 pounds
deadlift at the end ([3]; Trial Participant #1, 100 mg/day DHA, sixteen weeks, 455 pounds at the beginning): 560 pounds
improvement of all major lifting measurements from start to finish [3, 5]: 20-25 pounds
weight gained [3, 5]: twelve
reported effects of consumer use: increases in strength, lean muscle gains, increased fat loss, appetite increase, libido boost, increased energy, and increased muscle hardness
reported side effects (consumer use): slight acne and slight lethargy
relative androgenic activity equivalent to that of testosterone [4]: approximately 43%
